One compound from patent US20090192312A1, “Brain Function-Improving Agent, and Functional Food Containing the Improving Agent” (MITSUBISHI GAS CHEMICAL COMPANY, INC., priority 2006, published 2009) can be followed below.

This assay has as its system Male Wistar rats. Put plainly: Morris water maze test of learning and memory abilities. The conditions noted are these: feed containing 0.02% PQQ·2Na, 21 days of breeding; one trial daily for 20 days; versus PQQ·2Na-free treatment groups; 9 animals per group. The format is in vivo. The source says:
Male Wistar rats (9 weeks old) were bred using a feed containing 0.02% pyrroloquinoline quinone disodium salt (PQQ·2Na) or 0.3% coenzyme Q10 (CoQ10) alone or both in combination or a feed free from these compounds. From the age of 12 week old after 21 days of breeding, 9 animals per group were subjected to a test of learning and memory abilities using a Morris water maze. Specifically, the bottom of a circular pool (150 cm in diameter, 45 cm in depth) was divided into four quadrants with white lines. A circular platform was placed at the center of one of the quadrants so that it was hidden under the water. Each rat was allowed to swim from different positions of the other three quadrants having no platform, and the time until it reached the platform was measured. This test was tried once daily for a total of 20 days. The learning rate was calculated by the following equation: Learning rate (%)=100−(mean time until rat reaches the platform at the Xth trial/mean time until rat reaches the platform at the first trial)×100

On to `O=C(O)c1cc(C(=O)O)c2c(n1)C(=O)C(=O)c1cc(C(=O)O)[nH]c1-2.[Na].[Na]` [PQQ·2Na, pyrroloquinoline quinone disodium salt], for which the “increasing rate of the learning rate” value is recorded as “statistically significantly higher”.
